ChEMBL document CHEMBL1201862, “PubChem BioAssay data set” (2004)
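Step 1: Grow cells in 96-well plates. Step 2: Expose to compound for 48 hours at 5 concentrations. Step 3: Interpolate endpoints linearly; if unreached, use highest concentration. GI50 marks 50% less growth.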 Activity calls are given as the source filed them. No stated cut-off is given here; in the data, active = GI50 up to about 1.1 µM and inactive = higher.

Key:
Test in all cases: growth of human tumour cells (NCI), 48 h
BT-549 = tested on: BT-549
EKVX = tested on: EKVX
HCT-15 = tested on: HCT-15
HL-60 = tested on: HL-60
HT-29 = tested on: HT-29
K562 = tested on: K562
KM12 = tested on: KM12
MDA-N = tested on: MDA-N
MOLT-4 = tested on: MOLT-4
NCI-H23 = tested on: NCI-H23
OVCAR-4 = tested on: OVCAR-4
OVCAR-5 = tested on: OVCAR-5
OVCAR-8 = tested on: OVCAR-8
PC-3 = tested on: PC-3
RPMI-8226 = tested on: RPMI-8226
RXF 393 = tested on: RXF 393
SF-539 = tested on: SF-539
SK-MEL-2 = tested on: SK-MEL-2
SNB-19 = tested on: SNB-19
TK-10 = tested on: TK-10

Compound | GI50 (BT-549) | GI50 (EKVX) | GI50 (HCT-15) [µM] | GI50 (HL-60) | GI50 (HT-29) | GI50 (K562) | GI50 (KM12) | GI50 (MDA-N) | GI50 (MOLT-4) | GI50 (NCI-H23) | GI50 (OVCAR-4) | GI50 (OVCAR-5) | GI50 (OVCAR-8) | GI50 (PC-3) | GI50 (RPMI-8226) | GI50 (RXF 393) | GI50 (SF-539) | GI50 (SK-MEL-2) | GI50 (SNB-19) | GI50 (TK-10)
c1ccc(/N=C2\SC(c3ccccc3)CN2C23CC4CC(CC(C4)C2)C3)cc1 (stereo not drawn) | > 100 µM (inactive) | > 100 µM (inactive) | > 100 | > 100 µM (inactive) | > 100 µM (inactive) | > 100 µM (inactive) | > 100 µM (inactive) | > 100 µM (inactive) | > 100 µM (inactive) | > 100 µM (inactive) | > 100 µM (inactive) | > 100 µM (inactive) | > 100 µM (inactive) | > 100 µM (inactive) | > 100 µM (inactive) | > 100 µM (inactive) | > 100 µM (inactive) | > 100 µM (inactive) | > 100 µM (inactive) | > 100 µM (inactive)
CC(=O)O[C@H]1C(=O)[C@@]2(C)[C@H]([C@H](OC(=O)c3ccccc3)[C@]3(O)C[C@H](OC(=O)[C@H](O)[C@@H](NC(=O)OC(C)(C)C)c4ccco4)C(C)=C1C3(C)C)[C@]1(OC(C)=O)CO[C@@H]1C[C@@H]2O | < 0.005 µM (active) | 14.7 µM (inactive) | 0.00948 | < 0.005 µM (active) | < 0.005 µM (active) | < 0.005 µM (active) | < 0.005 µM (active) | < 0.005 µM (active) | 0.00667 µM (active) | 0.00966 µM (active) | 4.18 µM (inactive) | 0.00724 µM (active) | 0.00615 µM (active) | < 0.005 µM (active) | < 0.005 µM (active) | 0.00899 µM (active) | 0.00553 µM (active) | 0.00723 µM (active) | 0.00971 µM (active) | 0.0116 µM (active)
Cc1cc(N(CCCl)CCCl)ccc1/C=N/NC(=O)Cc1cc(=O)oc2cc(O)ccc12 | 13.4 µM (inactive) | 20.4 µM (inactive) | 14.4 | 12.2 µM (inactive) | 14.7 µM (inactive) | 9.18 µM (inactive) | 16.6 µM (inactive) | 12.7 µM (inactive) | 5.6 µM (inactive) | 19.5 µM (inactive) | 16.6 µM (inactive) | 31.6 µM (inactive) | 19.5 µM (inactive) | 11.9 µM (inactive) | 16 µM (inactive) | 16.6 µM (inactive) | 18 µM (inactive) | 32.3 µM (inactive) | 18 µM (inactive) | 
COC1C(=O)CCC2(CO2)C1(O)C1(C)OC1CCC(C)C (stereo not drawn) | > 100 µM (inactive) | > 100 µM (inactive) | 29.4 | 42.8 µM (inactive) | 22.2 µM (inactive) | 32.5 µM (inactive) | 10.2 µM (inactive) | 29.4 µM (inactive) | 40.1 µM (inactive) | 22.6 µM (inactive) | > 100 µM (inactive) | > 100 µM (inactive) | 28 µM (inactive) | 25.9 µM (inactive) | > 100 µM (inactive) | > 100 µM (inactive) | > 100 µM (inactive) |  | 34.2 µM (inactive) | 
CC(=O)N1C(c2[nH]c3ccccc3c2-c2ccccc2)CCN1c1ccccc1 (stereo not drawn) | > 10 µM (inactive) | > 10 µM (inactive) | > 10 | > 10 µM (inactive) | > 10 µM (inactive) | 9.18 µM (inactive) |  | > 10 µM (inactive) | > 10 µM (inactive) | > 10 µM (inactive) | > 10 µM (inactive) | > 10 µM (inactive) | > 10 µM (inactive) | 8.97 µM (inactive) | > 10 µM (inactive) | > 10 µM (inactive) | > 10 µM (inactive) | > 10 µM (inactive) | > 10 µM (inactive) | > 10 µM (inactive)
C#CCOCC12C=CC(O1)C1C(=O)OCC12 (stereo not drawn) | > 100 µM (inactive) | > 100 µM (inactive) | > 100 | > 100 µM (inactive) | > 100 µM (inactive) | > 100 µM (inactive) | > 100 µM (inactive) | > 100 µM (inactive) | > 100 µM (inactive) | > 100 µM (inactive) | > 100 µM (inactive) | > 100 µM (inactive) | > 100 µM (inactive) | > 100 µM (inactive) | > 100 µM (inactive) | > 100 µM (inactive) | > 100 µM (inactive) |  | > 100 µM (inactive) | > 100 µM (inactive)
CC1(C)OC2C(=O)C=C(COCc3ccccc3)C2O1 (stereo not drawn) | 15.6 µM (inactive) | 37.5 µM (inactive) | 35.2 | 11.2 µM (inactive) | 33 µM (inactive) | 23.6 µM (inactive) | 21.5 µM (inactive) | 34.8 µM (inactive) | 28.4 µM (inactive) | 19.2 µM (inactive) |  | 31.1 µM (inactive) | 34.2 µM (inactive) | 23.9 µM (inactive) | 24.8 µM (inactive) | 15.5 µM (inactive) | 30 µM (inactive) | 38.9 µM (inactive) | 47.2 µM (inactive) | 28.2 µM (inactive)
O=C1O[C@H](COC(=O)c2ccccc2)[C@@H](OC(=O)c2ccccc2)C=C1OC(=O)c1ccccc1 | 16.4 µM (inactive) | 17.7 µM (inactive) | 17.7 | 10.5 µM (inactive) |  | 24.3 µM (inactive) | 33.7 µM (inactive) | 31.7 µM (inactive) | 23.1 µM (inactive) | 18.1 µM (inactive) | 20.9 µM (inactive) | 21 µM (inactive) | 21.8 µM (inactive) | 25.4 µM (inactive) | 29.6 µM (inactive) | 17 µM (inactive) | 17.6 µM (inactive) | 23.5 µM (inactive) | 18.1 µM (inactive) | 27.9 µM (inactive)
O=C(O)Cc1cc(Cl)ccc1O | > 100 µM (inactive) | > 100 µM (inactive) | > 100 | > 100 µM (inactive) | > 100 µM (inactive) |  | > 100 µM (inactive) | > 100 µM (inactive) |  | > 100 µM (inactive) | > 100 µM (inactive) | > 100 µM (inactive) | > 100 µM (inactive) | > 100 µM (inactive) | > 100 µM (inactive) | > 100 µM (inactive) | > 100 µM (inactive) | > 100 µM (inactive) | > 100 µM (inactive) | > 100 µM (inactive)
COC(=O)c1c(O)ccc2c1c1c(n2Cc2ccccn2)C(=O)c2ccccc2C1 | > 100 µM (inactive) |  | > 100 | > 100 µM (inactive) | 32.8 µM (inactive) | > 100 µM (inactive) | > 100 µM (inactive) | > 100 µM (inactive) | 95.1 µM (inactive) | > 100 µM (inactive) | 19.4 µM (inactive) | 49.8 µM (inactive) | > 100 µM (inactive) | 16.5 µM (inactive) | 13 µM (inactive) | 31.6 µM (inactive) | 87.9 µM (inactive) | 75 µM (inactive) | > 100 µM (inactive) | > 100 µM (inactive)
O=c1[nH]nc(-c2ccccc2)c2[nH]c3c(c12)CCCc1ccccc1-3 | 20.7 µM (inactive) | 10.6 µM (inactive) | 2.34 | 20.9 µM (inactive) | 11.3 µM (inactive) | 12.8 µM (inactive) | 10.2 µM (inactive) | 12.5 µM (inactive) | 10.9 µM (inactive) | 52.2 µM (inactive) | 12.9 µM (inactive) | 18.7 µM (inactive) | 17.4 µM (inactive) | 14.9 µM (inactive) | 11.5 µM (inactive) | 15.6 µM (inactive) | 17.2 µM (inactive) |  | 10.7 µM (inactive) | 19.4 µM (inactive)
CC(=O)C12C[C@](C#N)(N3CCCCCC3)C1C=Cc1ccccc12 (stereo partly drawn) | > 100 µM (inactive) | > 100 µM (inactive) | > 100 | > 100 µM (inactive) | > 100 µM (inactive) | > 100 µM (inactive) | > 100 µM (inactive) | > 100 µM (inactive) | > 100 µM (inactive) | > 100 µM (inactive) | > 100 µM (inactive) |  | > 100 µM (inactive) | > 100 µM (inactive) | > 100 µM (inactive) | > 100 µM (inactive) | > 100 µM (inactive) |  | > 100 µM (inactive) | > 100 µM (inactive)
COc1c(O)cc2c(c1O)C1O[C@H](CO)C(O)[C@H](O)[C@H]1OC2=O (stereo partly drawn) | > 100 µM (inactive) |  | > 100 | > 100 µM (inactive) | > 100 µM (inactive) | > 100 µM (inactive) | > 100 µM (inactive) | > 100 µM (inactive) | > 100 µM (inactive) | > 100 µM (inactive) | > 100 µM (inactive) | > 100 µM (inactive) | > 100 µM (inactive) | > 100 µM (inactive) | > 100 µM (inactive) | > 100 µM (inactive) | > 100 µM (inactive) | > 100 µM (inactive) | > 100 µM (inactive) | > 100 µM (inactive)
O=C(Nc1cccc2ccccc12)c1cc2ccccc2oc1=O | > 100 µM (inactive) |  | > 100 | > 100 µM (inactive) | 28.1 µM (inactive) | > 100 µM (inactive) | > 100 µM (inactive) | > 100 µM (inactive) | > 100 µM (inactive) | 36.7 µM (inactive) | 78 µM (inactive) | 41.1 µM (inactive) | 39.4 µM (inactive) | > 100 µM (inactive) | > 100 µM (inactive) | 22.6 µM (inactive) | 14.6 µM (inactive) | 40.6 µM (inactive) | 22 µM (inactive) | 
O=C1NC(N2CCOCC2)=N/C1=C\c1ccco1 | > 100 µM (inactive) | > 100 µM (inactive) | > 100 | > 100 µM (inactive) | > 100 µM (inactive) |  | > 100 µM (inactive) | > 100 µM (inactive) | > 100 µM (inactive) | > 100 µM (inactive) | > 100 µM (inactive) | > 100 µM (inactive) | > 100 µM (inactive) | > 100 µM (inactive) | > 100 µM (inactive) | > 100 µM (inactive) | > 100 µM (inactive) | > 100 µM (inactive) | > 100 µM (inactive) | > 100 µM (inactive)
